Assay results reported in patent publication US20050112573A1, “Method of detecting toxic substance” (priority 2001, published 2005).

System: yeast genes (level of expressed mRNA)
Test: DNA chip analysis of expressed mRNA of yeast genes after 2 h culture with a toxic chemical substance
Assay type: cell-based, Saccharomyces cerevisiae S288C
Method: Yeast (Saccharomyces cerevtisiae S288C (α SUC2mal mel gap2 CUP1)) were cultured at 25° C. on YPD medium (yeast extract 1%, polypepton 2%, glucose 2%). One of toxic chemical substances was added to the cell at logarithmic growth phase, and the cell was further cultured for two hours. Cell was cultured without any chemical substance in the same condition, and was used as control. Concentrations of the chemical substances were defined to inhibit the growth of the yeast but not lead to death.
After the completion of cultivation, the culture was centrifuged to collect the cells. To the cells, sodium acetate buffer (50 mM sodium acetate, 10 mM EDTA, 1% SDS) was added, and the mixture was shaken at 65° C. for five minutes, followed by returning to room temperature, and obtaining the supernatant, which procedure was repeated two times. To the supernatant, ½ amount of a solution of phenol/chloroform was added, and the mixture was centrifuged to give a supernatant, which was added with an equal amount of chloroform, and the mixture was centrifuged to give a supernatant. To the supernatant, an equal amount of isopropanol containing 0.3 M sodium acetate was added, and the mixture was allowed to stand at room temperature for 30 minutes, after which the mixture was centrifuged to give a sediment of the whole RNAs. Seventy % ethanol was added to the sediment, and the mixture was again centrifuged to give a sediment, which was then dried and dissolved in water. mRNA was isolated from the whole RNAs as followings. In view of the fact that a poly A chain is attached to the 3′ terminus of mRNA, a polynucleotide having a poly T structure which was immobilized on the surface of latex beads was used to trap the mRNA, and then the mRNA was washed and eluted with spine column (Oligotex-dT30<Super>mRNA Purification Kit, Takara). Reverse transcription of the mRNA was conducted with a reverse transcriptase (Super Script II Reverse Transcriptase; catalogue No. 18064-014, GibcoBRL) using fluorescence-labeled nucleotides to give cDNAs that were introduced with Cy3-dUTP or Cy5-dUTP during the reverse transcription.
The labeled cDNAs were dissolved in TE buffer (10 mM Tris-HCl/1 mM EDTA, pH8.0), and the solution was dropped on the DNA chip containing the whole genes of yeast (DNA Chip Research Inc. Japan) so that the cDNAs were hybridized on the DNA chip at 65° C. for over 12 hours. The fluoresces intensity of the DNA chip was read with a scanner, and the ratio relative to the fluorescence intensity resulting from the absence of chemical substance was estimated as the following, which is shown in Tables 1 to 9: [formula]
In the Tables, “Intensity” indicated in the rightmost column is a value of the level of expressed mRNA of each gene in control cells as divided by the average level of the expressions of the whole genes.

`CN(C)C(=S)SSC(=S)N(C)C` [(10), Tetramethylthiuram disulfide] was tested, and the “The level of expressed mRNA in the presence of chemical substance/The level of expressed mRNA in the absence of chemical substance” value (yeast gene YKL013C) was 1.4, the “The level of expressed mRNA in the presence of chemical substance/The level of expressed mRNA in the absence of chemical substance” value (yeast gene YKL039W) was 3.3 and the “The level of expressed mRNA in the presence of chemical substance/The level of expressed mRNA in the absence of chemical substance” value (yeast gene YKL041W) was 1.5. The “The level of expressed mRNA in the presence of chemical substance/The level of expressed mRNA in the absence of chemical substance” value (yeast gene YKL096W) was 0.5, the “The level of expressed mRNA in the presence of chemical substance/The level of expressed mRNA in the absence of chemical substance” value (yeast gene YKL165C) was 0.4 and the “The level of expressed mRNA in the presence of chemical substance/The level of expressed mRNA in the absence of chemical substance” value (yeast gene YKL193C) was 1.6. The “The level of expressed mRNA in the presence of chemical substance/The level of expressed mRNA in the absence of chemical substance” value (yeast gene YLR120C) was 1.6, the “The level of expressed mRNA in the presence of chemical substance/The level of expressed mRNA in the absence of chemical substance” value (yeast gene YLR136C) was 6.0 and the “The level of expressed mRNA in the presence of chemical substance/The level of expressed mRNA in the absence of chemical substance” value (yeast gene YLR178C) was 4.1. The “The level of expressed mRNA in the presence of chemical substance/The level of expressed mRNA in the absence of chemical substance” value (yeast gene YLR250W) was 2.4, the “The level of expressed mRNA in the presence of chemical substance/The level of expressed mRNA in the absence of chemical substance” value (yeast gene YLR327C) was 8.3 and the “The level of expressed mRNA in the presence of chemical substance/The level of expressed mRNA in the absence of chemical substance” value (yeast gene YLR356W) was 1.6. For the same compound, the “The level of expressed mRNA in the presence of chemical substance/The level of expressed mRNA in the absence of chemical substance” value (yeast gene YLR362W) was 3.3, the “The level of expressed mRNA in the presence of chemical substance/The level of expressed mRNA in the absence of chemical substance” value (yeast gene YLR391W) was 0.7 and the “The level of expressed mRNA in the presence of chemical substance/The level of expressed mRNA in the absence of chemical substance” value (yeast gene YLR429W) was 1.3. For the same compound, the “The level of expressed mRNA in the presence of chemical substance/The level of expressed mRNA in the absence of chemical substance” value (yeast gene YMR004W) was 3.4, the “The level of expressed mRNA in the presence of chemical substance/The level of expressed mRNA in the absence of chemical substance” value (yeast gene YMR094W) was 0.9 and the “The level of expressed mRNA in the presence of chemical substance/The level of expressed mRNA in the absence of chemical substance” value (yeast gene YMR104C) was 3.2. The “The level of expressed mRNA in the presence of chemical substance/The level of expressed mRNA in the absence of chemical substance” value (yeast gene YMR219W) was 0.9, the “The level of expressed mRNA in the presence of chemical substance/The level of expressed mRNA in the absence of chemical substance” value (yeast gene YMR226C) was 2.2 and the “The level of expressed mRNA in the presence of chemical substance/The level of expressed mRNA in the absence of chemical substance” value (yeast gene YMR275C) was 2.1. For the same compound, the “The level of expressed mRNA in the presence of chemical substance/The level of expressed mRNA in the absence of chemical substance” value (yeast gene YMR276W) was 1.7, the “The level of expressed mRNA in the presence of chemical substance/The level of expressed mRNA in the absence of chemical substance” value (yeast gene YMR314W) was 2.7 and the “The level of expressed mRNA in the presence of chemical substance/The level of expressed mRNA in the absence of chemical substance” value (yeast gene YNL006W) was 4.0. The “The level of expressed mRNA in the presence of chemical substance/The level of expressed mRNA in the absence of chemical substance” value (yeast gene YNL007C) was 1.7, the “The level of expressed mRNA in the presence of chemical substance/The level of expressed mRNA in the absence of chemical substance” value (yeast gene YNL093W) was 2.0 and the “The level of expressed mRNA in the presence of chemical substance/The level of expressed mRNA in the absence of chemical substance” value (yeast gene YNL333W) was 2.1. For the same compound, the “The level of expressed mRNA in the presence of chemical substance/The level of expressed mRNA in the absence of chemical substance” value (yeast gene YNR010W) was 0.9, the “The level of expressed mRNA in the presence of chemical substance/The level of expressed mRNA in the absence of chemical substance” value (yeast gene YNR069C) was 5.8 and the “The level of expressed mRNA in the presence of chemical substance/The level of expressed mRNA in the absence of chemical substance” value (yeast gene YOL013C) was 1.0. For the same compound, the “The level of expressed mRNA in the presence of chemical substance/The level of expressed mRNA in the absence of chemical substance” value (yeast gene YOL164W) was 3.6, the “The level of expressed mRNA in the presence of chemical substance/The level of expressed mRNA in the absence of chemical substance” value (yeast gene YOR036W) was 1.9 and the “The level of expressed mRNA in the presence of chemical substance/The level of expressed mRNA in the absence of chemical substance” value (yeast gene YOR117W) was 1.8. The “The level of expressed mRNA in the presence of chemical substance/The level of expressed mRNA in the absence of chemical substance” value (yeast gene YOR124C) was 1.9, the “The level of expressed mRNA in the presence of chemical substance/The level of expressed mRNA in the absence of chemical substance” value (yeast gene YOR132W) was 1.6 and the “The level of expressed mRNA in the presence of chemical substance/The level of expressed mRNA in the absence of chemical substance” value (yeast gene YOR157C) was 2.6. The “The level of expressed mRNA in the presence of chemical substance/The level of expressed mRNA in the absence of chemical substance” value (yeast gene YOR181W) was 0.5, the “The level of expressed mRNA in the presence of chemical substance/The level of expressed mRNA in the absence of chemical substance” value (yeast gene YOR185C) was 2.9 and the “The level of expressed mRNA in the presence of chemical substance/The level of expressed mRNA in the absence of chemical substance” value (yeast gene YOR198C) was 1.4. For the same compound, the “The level of expressed mRNA in the presence of chemical substance/The level of expressed mRNA in the absence of chemical substance” value (yeast gene YOR259C) was 1.5, the “The level of expressed mRNA in the presence of chemical substance/The level of expressed mRNA in the absence of chemical substance” value (yeast gene YOR261C) was 2.5 and the “The level of expressed mRNA in the presence of chemical substance/The level of expressed mRNA in the absence of chemical substance” value (yeast gene YOR288C) was 1.0. For the same compound, the “The level of expressed mRNA in the presence of chemical substance/The level of expressed mRNA in the absence of chemical substance” value (yeast gene YOR355W) was 0.8, the “The level of expressed mRNA in the presence of chemical substance/The level of expressed mRNA in the absence of chemical substance” value (yeast gene YOR383C) was 4.5 and the “The level of expressed mRNA in the presence of chemical substance/The level of expressed mRNA in the absence of chemical substance” value (yeast gene YPL089C) was 2.5. The “The level of expressed mRNA in the presence of chemical substance/The level of expressed mRNA in the absence of chemical substance” value (yeast gene YPL109C) was 1.5, the “The level of expressed mRNA in the presence of chemical substance/The level of expressed mRNA in the absence of chemical substance” value (yeast gene YPL149W) was 3.7 and the “The level of expressed mRNA in the presence of chemical substance/The level of expressed mRNA in the absence of chemical substance” value (yeast gene YPL154C) was 1.7. The “The level of expressed mRNA in the presence of chemical substance/The level of expressed mRNA in the absence of chemical substance” value (yeast gene YPR103W) was 2.0 and the “The level of expressed mRNA in the presence of chemical substance/The level of expressed mRNA in the absence of chemical substance” value (yeast gene YPR108W) was 2.8.
